Assay in all cases: NCI-60 cell line screen, 48 h
For assay [1], the system named is EKVX NSCLC.
Assay [2] concerns K-562 leukemia.
Assay [3] relates to MALME-3M melanoma.
For assay [4], the system named is NCI-H23 lung.
In assay [5] the test system is NCI-H460 lung.
Assay [6] has as its system NCI-H522 lung.
Assay [7] concerns UO-31 renal.
In assay [8] the test system is BT-549 breast.
Assay [9] concerns HS 578T breast.

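1) Cells in 96-well plates. 2) Compound, 48 h, 5 concentrations. 3) Linear interpolation between surrounding doses. 4) Unreached endpoint = highest concentration. At the GI50, growth is halved. TGI: concentration producing complete growth inhibition.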

Regarding `COC(=O)C1CCc2nnc(-c3ccccc3)n21` (stereo not given), the TGI in assay [1], in assay [2], in [3], in assay [4], in assay [5] and in [6] was > 100 µM in each case. Also, the TGI in [7] is > 100 µM.
Take `COc1ccc2c(c1)CN1CCc3c(cc(OC)c(OC)c3OC)C1C2` (stereo not given): the TGI in [1], in assay [2], in assay [3], in assay [4], in assay [6] and in assay [7] was > 100 µM in each case.
`CCC[CH2][Sn]1([CH2]CCC)[S]CC[N]1S(=O)(=O)c1ccc(C)cc1`: the GI50 in [2] was 0.341 µM; in [3] it was 1.09 µM; in assay [4] it was 0.638 µM; in assay [5], 2.5 µM; in assay [6], 0.217 µM; in assay [7], 1.14 µM. The TGI in [2] came to 1.97 µM; in [3] it was 2.33 µM; in assay [4], 1.94 µM; in assay [5], 5.44 µM; in assay [6], 0.508 µM; in assay [7] it was 2.35 µM.
Consider `CNC(=O)CN(CC(=O)O)C(=O)NC`, for which the TGI in [1], in [2], in assay [3], in [4], in assay [6] and in [7] was > 100 µM in each case.
On to `C[C@H]1C=C2C(=O)O[C@H]3CC[C@@H](C1)[C@@]23O`, for which the TGI is 8.36 µM in assay [1]; 8.26 µM in assay [2]; 20 µM in assay [3]; 9.53 µM in [4]; 19.4 µM in assay [5]; 8.15 µM in [6]. Also, in assay [7], the TGI stood at 32.1 µM.
As to `CC[PH+](CC)CC.[Cl][Au]`, the GI50 in assay [1] was 1.42 µM; in [2] it was 0.319 µM; in [3], 1.27 µM; in [4], 1.68 µM; in assay [5], 16.2 µM; in assay [6], 0.122 µM. In assay [7], the GI50 is 6.21 µM. The TGI was 2.91 µM in assay [1]; 1.19 µM in assay [2]; 2.56 µM in [3]; 3.42 µM in [4]; 47.9 µM in assay [5]; 0.31 µM in assay [6]. In addition, the TGI in [7] was determined as 10.7 µM.
Turning to `CO/N=C(\COc1ccc2oc(-c3ccccc3)cc(=O)c2c1)c1ccc(F)cc1`, the GI50 in [8] was 29.6 µM; in assay [1], 35.9 µM; in assay [9], 23.2 µM; in [2], 81.2 µM; in [3] it was 30.3 µM; in assay [4], 23.1 µM. Also, the GI50 in assay [6] was 15.4 µM; in assay [7] it was 18.1 µM. For the same molecule, the TGI in [8] is > 100 µM; in assay [1], > 100 µM; in assay [9] it was 71 µM; in [2], > 100 µM; in assay [3], 67.1 µM; in assay [4], 64.7 µM. The figures for the TGI in [6] and in assay [7] were 40.5 µM and 42.1 µM, respectively.
Regarding `COc1cc(/C=N/N=C(\N)NO)c([N+](=O)[O-])cc1OC`, the TGI in [1] was > 100 µM; in [2], > 100 µM; in assay [3], > 100 µM; in [4] it was 99.4 µM; in assay [5] it was > 100 µM; in assay [6] it was 34.4 µM. For the same molecule, the TGI in assay [7] is > 100 µM.
In the case of `CO[C@@]1(c2ccccc2)O[C@H]2OCCC2[C@H]1c1ccc(Cl)cc1` (stereo not given in full), the TGI in assay [1] is 64.5 µM; in assay [2], > 100 µM; in assay [3], 84.8 µM; in assay [4], 81.6 µM; in assay [5], 57.8 µM; in assay [6], 67.9 µM. Further, the TGI in assay [7] came to 90.4 µM.
Take `CC1=CCCC2C(C=O)(C1)CC(C)C2(CO)CC/C(=C/CO)CO` (stereo not given): the TGI in [1], in [2], in assay [3], in assay [4], in assay [5] and in [6] was > 100 µM in each case. Also, the TGI in [7] amounted to 82.8 µM.
On to `CC[C@]12C=CCN3CCC4(c5cc([C@@]6(C(=O)OC)CC7CN(CCc8c6[nH]c6ccccc86)CC6CCCCC67)c(OC)cc5N(C)C4[C@](O)(C(=O)OC)C1OC(C)=O)[C@@H]32` (stereo not given in full), for which the TGI was 21.7 µM in [1]; < 0.01 µM in [9]; > 21.7 µM in assay [2]; 7.05 µM in assay [3]; < 0.01 µM in assay [4]; 0.225 µM in assay [5]. Also, the TGI is < 0.0165 µM in assay [6] and 7.31 µM in [7].
Regarding `CCCCN(CCCC)CC(C(C)=O)C(c1ccccc1)c1c(O)c2ccccc2oc1=O` (stereo not given), the TGI in [1], in [2], in assay [3], in [4], in assay [5] and in assay [6] was > 100 µM in each case.
With `CC(=O)NN1C(=O)C(Cc2ccccc2)c2ccccc21` (stereo not given), the TGI in assay [1], in assay [2], in assay [3], in assay [4], in [5] and in [7] was > 100 µM throughout.
For `COC(=O)N/N=C(\C)CC(=O)Nc1ccc(Cl)cc1`, the TGI in assay [1], in [2], in [3], in assay [4], in [5] and in assay [6] was > 100 µM in each case. Also, in assay [7], the TGI is > 100 µM.
For `O=C1NC2C(O)CCCCC2C12CCCCC2` (stereo not given), the TGI in assay [1], in [2], in assay [3], in [4], in assay [5] and in assay [6] was > 100 µM each time. In [7], the TGI is > 100 µM.
`O=C1Nc2cc(F)ccc2C1=O`: the TGI in [1], in [2], in [3], in assay [4], in assay [5] and in assay [6] was > 100 µM in each case. In [7], the TGI is > 100 µM.
